Values of other authors in patent publication US20260108637A1, “USES OF PSMA-TARGETING AND TSPO-TARGETING COMPOUNDS FOR EVALUATION OF INJURIES IN THE PERIPHERAL NERVOUS SYSTEM” (The Johns Hopkins University, priority 2023, published 2026).

Molecular target: GCPII (Homo sapiens, UniProt Q04609)
Conditions: described previously, Chen et al., 2009

Sequence of GCPII (Q04609 whole entry, species assumed): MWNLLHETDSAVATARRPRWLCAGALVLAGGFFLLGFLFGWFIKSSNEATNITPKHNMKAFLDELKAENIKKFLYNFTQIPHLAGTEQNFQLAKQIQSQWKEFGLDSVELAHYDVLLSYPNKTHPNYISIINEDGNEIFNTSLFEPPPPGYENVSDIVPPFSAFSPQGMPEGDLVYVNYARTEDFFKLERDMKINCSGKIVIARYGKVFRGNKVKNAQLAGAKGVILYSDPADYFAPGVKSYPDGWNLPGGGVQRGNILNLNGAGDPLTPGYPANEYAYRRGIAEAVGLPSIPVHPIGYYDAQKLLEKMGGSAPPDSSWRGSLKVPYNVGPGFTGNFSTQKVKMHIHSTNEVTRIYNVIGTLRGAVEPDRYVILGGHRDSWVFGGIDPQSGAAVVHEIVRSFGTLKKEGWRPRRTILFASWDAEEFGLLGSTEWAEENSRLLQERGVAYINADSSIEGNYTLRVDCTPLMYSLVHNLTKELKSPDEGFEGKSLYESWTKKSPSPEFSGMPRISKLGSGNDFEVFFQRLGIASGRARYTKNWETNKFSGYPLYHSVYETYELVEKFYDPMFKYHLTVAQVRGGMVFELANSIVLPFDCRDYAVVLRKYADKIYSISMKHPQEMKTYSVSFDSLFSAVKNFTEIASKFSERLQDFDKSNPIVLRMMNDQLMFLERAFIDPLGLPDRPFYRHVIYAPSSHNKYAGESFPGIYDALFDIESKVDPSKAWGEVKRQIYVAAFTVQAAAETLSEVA

## CC1(C)C(/C=C/C2=C(Oc3ccc(S(=O)(=O)O)cc3)C(=C/C=C3/N(CCCCS(=O)(=O)O)c4ccc(S(=O)(=O)O)cc4C3(C)C)/CCC2)=[N+](CCCCCC(=O)NCCCCC(NC(=O)CCCCCCC(=O)NCCCC[C@H](NC(=O)N[C@@H](CCC(=O)O)C(=O)O)C(=O)O)C(=O)O)c2ccc(S(=O)(=O)[O-])cc21 (stereo partly shown) [YC27]
  Ki: 0.37 nM
